Assay results reported in publication PMC9783648, “Comparative Analysis of Aristolochic Acids in Aristolochia Medicinal Herbs and Evaluation of Their Toxicities” (Toxins, 2022).
Where two headings read alike, the source gives them in different places.

Experiments:
[1] = Cytotoxicity assay, MTT method; type: cell-based, Human; conditions: human, HepG2, MTT, 72 h incubation, n = 3
Method: (§1) The cytotoxicity of the compounds to HepG2 was determined using the MTT method. First, the cells were transferred from the culture dish to a centrifuge tube, and centrifuged for 5 min (at 1000 r/min). After discarding the supernatant, the tumor cells were cultured in a complete medium containing 15% fetal bovine serum at 37 C, 5% CO2, and saturated humidity. When the cells grew logarithmically, they were spread onto plates, and the cell density was adjusted to 8.0 × 10^4 cells/mL before the cell sap was added into a 96-well plate (200 µL per well). The cells grew adherent for 24 h. After 24 h, 2 µL of two standards, two extracts of medicinal herbs were added to each plate well and incubated for 72 h. Adriamycin was used as the positive control, and the blank control contained 2 µL DMSO. After incubation, 20 μL of 5 mg/mL MTT solution was added, and the plates were incubated for 4 h. The supernatant liquid was removed, and the cells were disrupted with 200 µL of DMSO for 10 min. After the blue crystalline substance was fully dissolved, the absorbance value was measured on a microplate reader with the detection wavelength of 562 nm and the reference wavelength of 630 nm. The IC50 value of each compound was calculated.

HepG2 cell line = assay: Cytotoxicity assay, MTT method; type: cell-based, Human
Method: as §1

DNA of HepG2 cells [2] = assay: Comet assay, DNA damage; type: cell-based, Human; conditions: for damage to the DNA of HepG2 cells / tail length compared with blank control group: AAI 50 μM, AAII 131.5 μM; for tail length compared with blank control group: AMH 10 mg/mL, ADS 93 mg/mL, ADM 3.4 μM, Kruskal–Wallis test
Method: Cells in the logarithmic growth phase were inoculated in 6-well plates, and the cell density was adjusted to 2.5 × 10^5 cells /mL, 2 mL per well. After 24 h, the experimental group was combined with AAⅠ (50 μM), AAII (131.5 μM), extracts of the AMH (10 mg/mL) and ADS (93 mg/mL), the positive control group was combined with ADM (3.4 μM), and the blank control group were added with the same volume of cell culture solution. After 48 h of culture, the cells were collected. DNA damage was detected according to the operating instructions of comet assay kit. The experiment was repeated 3 times, and 50 cells were selected at each dose in each experiment and analyzed by Comet Assay software (CASP, http://casplab.com/, accessed on 5 October 2022). The mean values of tail DNA percentage, tail length, and tail moment of three experiments were used to express DNA damage. Results one-way ANOVA was used to test the data between groups, and the difference was statistically significant when p < 0.01. Data and statistical results are generated by GraphPad Prism 7 software.

DNA of HepG2 cells [3] = assay: Comet assay, DNA damage; type: cell-based, Human; conditions: HepG2, 48 h; AAI 50 μM, AAII 131.5 μM, AMH 10 mg/mL, ADS 93 mg/mL, ADM 3.4 μM; Kruskal–Wallis test
MCF7 = test system: MCF7; design: method as in PMID 25865074, PMID 29098873; conditions: cited from earlier work
A549 = test system: A549; design: method as in PMID 25865074, PMID 29098873; conditions: cited from earlier work
NCI-H187 cell line = test system: NCI-H187 cell line; design: method as in PMID 25865074, PMID 29098873; conditions: cited from earlier work
[4] = HepG2, AAI 50 μM vs AAII 131.5 μM, 48 h
[5] = HepG2, AAI 50 μM vs ADS extract 93 mg/mL, 48 h
[6] = means ± SD, read-out: IC50 values of compounds, cytotoxic activity

COc1cc(O)cc2c1cc([N+](=O)[O-])c1c(C(=O)O)cc3c(c12)OCO3 [AAD, Aristolochic acid IVa]
IC50 ([1]; read-out: IC50 values of compounds, cytotoxic activity (symbol)): > 1000 µM
cytotoxicity against HepG2 cell line (HepG2 cell line): no cytotoxicity

COc1cccc2c1cc([N+](=O)[O-])c1c(C(=O)O)cc3c(c12)OCO3 [AAI, Aristolochic acid I]
damage to the DNA of HepG2 cells (DNA of HepG2 cells [2]; HepG2, 48 h): obviously caused damage to the DNA
tail length compared with blank control group (DNA of HepG2 cells [2]; HepG2, 48 h): significantly higher
tail DNA content, increase relative to AAII (DNA of HepG2 cells [2]; [4]): 16 times
tail length, increase relative to AAII (DNA of HepG2 cells [2]; [4]): 12.8 times
tail moment, increase relative to AAII group (DNA of HepG2 cells [2]; [4]): 110 times
tail DNA content, increase relative to ADS (DNA of HepG2 cells [2]; [5]): 4.7 times
tail length, increase relative to ADS (DNA of HepG2 cells [2]; [5]): 6.8 times
tail moment, increase relative to ADS group (DNA of HepG2 cells [2]; [5]): approximately 70 times
damage to cellular DNA, TDNA (DNA of HepG2 cells [2]; HepG2, at 50 μM, 48 h): 40–95%
tail DNA content compared with blank control group (DNA of HepG2 cells [3]): significant differences
IC50 at 72 h [1, 6]: 50.2 ± 0.2 µM
cytotoxicity against HepG2 cell line (HepG2 cell line): moderate cytotoxicity

COc1cc2c3c(cc4ccccc4c3c1O)NC2=O [AL-FI]
IC50 [1, 6]: 417.2 ± 0.2 µM

COc1cccc2c1C(=O)c1c(O)c3c(c(O)c1C2=O)C[C@@](O)(C(=O)CO)C[C@@H]3O[C@H]1C[C@H](N)[C@H](O)[C@H](C)O1 [Extract of ADM, Adriamycin]
tail length compared with blank control group (DNA of HepG2 cells [2]; HepG2, 48 h): significantly higher
tail DNA content compared with blank control group (DNA of HepG2 cells [3]): significant differences
IC50 [1, 6]: 3.1 ± 0.1 µM

COc1cccc2c1cc1c3c(cc4c(c32)OCO4)C(=O)N1 [AL-I, aristolactam Ι]
IC50 [1, 6]: 135.7 ± 0.3 µM

COc1cc2c3c(cc4ccccc4c3c1OC)NC2=O [AL-BII]
cytotoxicity against MCF7 (MCF7): no cytotoxicity
cytotoxicity against A549 (A549): no cytotoxicity
cytotoxicity against NCI-H187 cell line (NCI-H187 cell line): selective cytotoxicity
IC50 [1, 6]: 0.2 ± 0.1 µM
cytotoxicity against HepG2 cell line (HepG2 cell line): most potent cytotoxicity

O=C(O)c1cc2c(c3c1c([N+](=O)[O-])cc1ccccc13)OCO2 [AAII]
damage to cellular DNA, TDNA (DNA of HepG2 cells [2]; HepG2, 48 h): 5–20%
damage to the DNA of HepG2 cells (DNA of HepG2 cells [2]; HepG2, 48 h): no obvious damage
tail DNA content compared with blank control group (DNA of HepG2 cells [3]): no significance
IC50 [1, 6]: 131.4 ± 0.1 µM

O=C(O)c1cc2c(c3c1c([N+](=O)[O-])cc1ccc(O)cc13)OCO2 [AAC, aristolochic acid ΙΙΙ a]
IC50 [1, 6]: 293.5 ± 0.3 µM
